# Assay results: PubChem BioAssay AID489032 (Sanford-Burnham Center for Chemical Genomics, 2010)
# Calls of active or inactive are those of the source. No rule for the calls is given here.
# Test system: UPR adaptive arm reporter cells, luciferase luminescence
# Test: activators of adaptive UPR signalling, dose response, cell-based, luciferase luminescence (AID 489032)
row,SMILES,EC50
1,COc1cc(NC(=O)c2cccs2)ccc1NC(=O)c1cc2ccccc2o1,> 80 µM (inactive)
2,COc1ccc(OC)c(-c2nnc3n2N=C(c2ccc(OC)c(OCC4CC4)c2)CS3)c1,> 80 µM (inactive)
3,CC(C)(C)c1csc(NC(=O)c2ccc(Cl)s2)n1,> 80 µM (inactive)
4,COc1cc(/C=C2/C(=N)N3C=CSC3=NC2=O)ccc1OCCCOc1cc(C)ccc1C,> 80 µM (inactive)
5,Cc1ccc2nc(NC(=O)c3ccc(-c4nc5ccccc5s4)s3)sc2c1,> 80 µM (inactive)
6,Cn1c(=O)c2c(SCC(=O)Nc3ccccc3F)nc(-c3ccccc3F)nc2n(C)c1=O,36.1 µM (inactive)
7,O=C(Nc1ccc(C(F)(F)F)cc1)c1cc(-c2cccnc2)nc2ccc(Br)cc12,15.6 µM
8,COc1ccc2[nH]c3c(c2c1)CCN1C(=O)C(CC(=O)NC/C=C(\C)CCC=C(C)C)C[C@H](C(=O)N(C(C)C)C(C)C)[C@@]31C (some centres undefined),60.1 µM (inactive)
9,O=Cc1cc2ccccc2nc1SCc1ccc(Cl)cc1,40.2 µM (inactive)
10,COc1cc(OC)c2c(-c3cccc(-c4ccc(CO)cc4)c3)cc(=O)oc2c1,> 80 µM (inactive)
11,COc1ccc2cc(C)c3nnc(SCC(=O)Nc4nc(-c5ccc(F)cc5)cs4)n3c2c1,23.7 µM (inactive)
12,O=C(NCCc1ccc(O)c(O)c1)C1COc2ccccc2O1 (centres undefined),66.1 µM (inactive)
13,O=C(CSCc1ccc(Cl)cc1)Nc1ccc(-c2nnc(-c3ccccc3)o2)cc1,> 80 µM (inactive)
14,Cn1nc(C(F)(F)F)c(/C=N/OC(=O)c2ccccc2)c1SCc1ccccc1Cl,10.3 µM
15,CCOc1ccc(NC(=O)C(Cc2ccccc2)N2C(=O)c3cccc4cccc(c34)C2=O)cc1 (centres undefined),> 80 µM (inactive)
16,CCN(CC)c1ccc(/C=C/[N+](=O)[O-])cc1,19.4 µM
17,COC(=O)Cc1csc(/N=C/c2c(O)n(-c3cccc(C(F)(F)F)c3)c(=O)c3ccccc23)n1,> 80 µM (inactive)
18,Cc1ccc2nc(SCC(=O)Nc3cc(C(F)(F)F)ccc3N3CCOCC3)[nH]c2c1,> 80 µM (inactive)
19,Cc1nc(NC(=O)CSc2ccc(-c3nc4ccccc4[nH]3)cn2)sc1C,> 80 µM (inactive)
20,O=C(CSc1nc2ccccc2c(=O)n1-c1ccccc1)N1CCc2ccccc21,> 80 µM (inactive)
21,CCOc1ccc(S(=O)(=O)Nc2cccc(C(=O)NCC3(N4CCCCC4)CCCCC3)c2)cc1,15.3 µM
22,CCOC(=O)c1nnc(-c2ccc(C)cc2)nc1Oc1ccccc1Cl,> 80 µM (inactive)

row,SMILES,EC50
1,FC(F)(F)c1nnc2c(Sc3ccc(Cl)cc3)nc3ccccc3n12,> 80 µM (inactive)
2,CC1CCC(C(C)C)C(OC(=O)Cn2c(-c3ccc(Br)cc3)[n+](C)c3ccccc32)C1 (centres undefined),> 80 µM (inactive)
3,Nc1nc(Nc2cccc(C(F)(F)F)c2)nc(C(F)(F)F)n1,56.6 µM (inactive)
4,COc1ccc2nc(C)cc(SCC(=O)N/N=C/c3cccc4ccccc34)c2c1,17.8 µM
5,CCOc1ccc(-c2nnc(SCC(=O)Nc3ccc4c(c3)c3ccccc3n4CC)n2N)cc1,> 80 µM (inactive)
6,CCOC(=O)c1cc(NC(=O)c2ccc(Cl)cc2)c(=O)n2c1oc1ccc(Cl)cc12,> 80 µM (inactive)
7,Cc1cc(N2CCN(c3ccc([N+](=O)[O-])c4cccnc34)CC2)c2ccccc2n1,21.4 µM (inactive)
8,Cc1ccc2nc(/C(C#N)=C/c3ccc(O)c(O)c3)[nH]c2c1,> 80 µM (inactive)
9,OCCNc1nc(Nc2ccc(Br)cc2)nc2ccccc12,> 80 µM (inactive)
10,COc1ccc(C(=O)Oc2cc3c4c(c2)C(C)=CC(C)(C)N4C(=O)C3=O)cc1OC,25.4 µM (inactive)
11,CCOC(=O)c1c(NC(=O)c2cc(C)on2)c2cc([N+](=O)[O-])ccc2n1C,> 80 µM (inactive)
12,CCOC(=O)c1c(NC(=O)Cc2cccs2)sc(C(=O)NC2CCCCC2)c1C,> 80 µM (inactive)
13,N#Cc1ccccc1/C=N/Nc1nc(-c2ccccc2)c2cc(Cl)ccc2n1,> 80 µM (inactive)
14,Clc1ccc(-c2ccc(/C=N/Nc3nncc(-c4ccccc4)n3)o2)cc1,> 80 µM (inactive)
15,COc1cc(NC(=O)c2ccc(C)cc2C)ccc1NC(=O)c1cc2ccccc2o1,> 80 µM (inactive)
16,O=Cc1cc2ccccc2nc1SCc1ccc(Cl)c(Cl)c1,52.3 µM (inactive)
17,O=[N+]([O-])c1ccc(N/N=C/c2cccc(O)c2O)c(S(=O)(=O)N2CCOCC2)c1,21.2 µM (inactive)
18,COc1ccc(-c2nn(C)c(=O)c3ccccc23)cc1NC(=O)Cn1nc(C)c2ccccc2c1=O,28 µM (inactive)
19,CCOC(=O)c1c(NC(=O)c2cc3n(n2)C(C(F)(F)F)CC(c2cccs2)N3)sc(C)c1C (centres undefined),15.9 µM
20,CC(C)N=C(NS(=O)(=O)c1ccccc1)C(Cl)(Cl)Cl,> 80 µM (inactive)
21,O=C(COC(=O)/C=C/c1cn(-c2ccccc2)nc1-c1cccnc1)Nc1ccc(Cl)cc1Cl,> 80 µM (inactive)
22,O=C(C[C@H]1C/C=C\C[C@@H](NC(=O)OCC2c3ccccc3-c3ccccc32)C(=O)O[C@@H](c2ccccc2)CNC1=O)N[C@H](CO)Cc1ccccc1,20 µM
